For 36 compounds, IC50 results are on record in patent US20130142831A1, “COMPOUNDS FOR INFLAMMATION AND IMMUNE-RELATED USES” (Synta Pharmaceuticals Corp., priority 2004, published 2013).

What is called IC50 is the concentration that inhibits the measured activity by half. The low end stands for greater potency in that assay, the high end for weaker potency in that assay.

The test system of this test is IL-2 production. The test is described as follows: Inhibition of IL-2 production in PHA-activated Jurkat cells. Type of test: cell-based. To be noted: Homo sapiens, PHA 2.5 μg/mL, 20 hours. As to the method: Jurkat cells were placed in a 96 well plate (0.5 million cells per well in 1% FBS medium) then test compounds of this invention were added at different concentrations. After 10 minutes, the cells were activated with PHA (final concentration 2.5 μg/mL) and incubated for 20 hours at 37° C. under CO2. The final volume was 200 μL. Following incubation, the cells were centrifuged and the supernatants collected and stored at −70° C. prior to assaying for IL-2 production. A commercial kit (IL-2 Eli-pair, Diaclone Research, Besancon, France) was used to detect production of IL-2, from which dose response curves were obtained. The IC50 value was calculated as the concentration at which. 50% of maximum IL-2 production after stimulation was inhibited versus a non-stimulation control.

Under “bins given in nM”, `COc1ccc2c(c1)nc(C(F)(F)F)n2-c1ccc(NC(=O)c2cc(F)cc(F)c2F)cc1` [Compound 2, 2,3,5-Trifluoro-N-[4-(2-trifluoromethyl-5-methoxy-benzoimidazol-1-yl)-phenyl]-benzamide] returned an IC50 below 100 nM.
Same read-out and setting: the result for `COc1ccc2c(c1)nc(C(F)(F)F)n2-c1ccc(NC(=O)c2ccc(F)c(F)c2F)cc1` [Compound 3, 2,3,4-Trifluoro-N-[4-(2-trifluoromethyl-5-methoxy-benzoimidazol-1-yl)-phenyl]-benzamide] reads below 100 nM; that for `COc1ccc2c(c1)nc(C(F)(F)F)n2-c1ccc(NC(=O)c2cccc(F)c2F)cc1` [Compound 4, 2,3-Difluoro-N-[4-(2-trifluoromethyl-5-methoxy-benzoimidazol-1-yl)-phenyl]-benzamide], below 100 nM; that for `COc1ccc2c(c1)nc(C(F)(F)F)n2-c1ccc(NC(=O)c2ccncc2C)cc1` [Compound 5, 3-Methyl-N-[4-(2-trifluoromethyl-5-methoxy-benzoimidazol-1-yl)-phenyl]-isonicotinamide], below 100 nM.
On the same count and under the same terms, the result for `COc1ccc2c(c1)nc(C(F)(F)F)n2-c1ccc(NC(=O)c2ccncc2F)cc1` [Compound 6, 3-Fluoro-N-[4-(2-trifluoromethyl-5-methoxy-benzoimidazol-1-yl)-phenyl]-isonicotinamide] reads below 100 nM; that for `COc1ccc2c(c1)nc(C(F)(F)F)n2-c1ccc(NC(=O)c2cc(F)c(Cl)cc2Cl)cc1` [Compound 7, 2,4-Dichloro-5-fluoro-N-[4-(2-trifluoromethyl-5-methoxy-benzoimidazol-1-yl)-phenyl]-benzamide], below 100 nM; that for `O=C(Nc1ccc(-c2c(C(F)(F)F)cc3n2CCCC3)cc1)c1cccc(F)c1F` [Compound 8, 2,3-Difluoro-N-[4-(2-trifluoromethyl-5,6,7,8-tetrahydroindolizin-3-yl)-phenyl]-benzamide], below 100 nM.
On the same count and under the same terms, the result for `COc1ccc2c(c1)nc(C(F)(F)F)n2-c1ccc(NC(=O)c2cccc([N+](=O)[O-])c2)cc1` [Compound 10, 3-Nitro-N-[4-(2-trifluoromethyl-5-methoxy-benzoimidazol-1-yl)-phenyl]-benzamide] reads below 100 nM; that for `CSc1nc2ccccc2n1-c1ccc(NC(=O)c2cccc(F)c2F)cc1` [Compound 11, 2,3-Difluoro-N-[4-(2-methylsulfanyl-benzoimidazol-1-yl)-phenyl]-benzamide], below 100 nM; that for `Fc1cccc(C(=S)Nc2ccc(-n3c(C(F)(F)F)nc4ccccc43)cc2)c1F` [Compound 12, 2,3-Difluoro-N-[4-(2-trifluoromethyl-benzoimidazol-1-yl)-phenyl]-thiobenzamide], below 100 nM.
`O=C(Nc1ccc(-n2c(C(F)(F)F)nc3ccccc32)cc1)c1cccc(Cl)c1Cl` [Compound 13, 2,3-Dichloro-N-[4-(2-trifluoromethyl-benzoimidazol-1-yl)-phenyl]-benzamide] registered an IC50 (bins given in nM) below 100 nM.
`COc1ccc2nc(C(F)(F)F)n(-c3ccc(NC(=O)c4cccc(F)c4F)cc3)c2c1` [Compound 14, 2,3-Difluoro-N-[4-(2-trifluoromethyl-6-methoxy-benzoimidazol-1-yl)-phenyl]-benzamide] came in with a half-inhibitory concentration (IC50) (bins given in nM) below 100 nM.
Take `O=C(Nc1ccc(-n2c(C(F)(F)F)nc3ccccc32)cc1)c1cccc(Cl)c1F` [Compound 15]: the IC50 (bins given in nM) lay within 100 to 500 nM.
The compound `Nc1cc(F)c(F)c(C(=O)Nc2ccc(-n3c(C(F)(F)F)nc4ccccc43)cc2)c1F` [Compound 16, 2,3,6-Trifluoro-5-amino-N-[4-(2-trifluoromethyl-benzoimidazol-1-yl)-phenyl]-benzamide] registered an IC50 (bins given in nM) of 100 to 500 nM.
Consider `Cc1cc(NC(=O)c2cccc(F)c2F)ccc1-n1c(C(F)(F)F)nc2ccccc21` [Compound 17, 2,3-Difluoro-N-[3-methyl-4-(2-trifluoromethyl-benzoimidazol-1-yl)-phenyl]-benzamide], for which, where the note is “bins given in nM”, the IC50 was in the range of 100 to 500 nM.
Same read-out and setting: the result for `Cc1ccccc1C(=O)Nc1ccc(-c2c(C(F)(F)F)cc3n2CCCC3)cc1` [Compound 18, 2-Methyl-N-[4-(2-trifluoromethyl-5,6,7,8-tetrahydroindolizin-3-yl)-phenyl]-benzamide] reads 100 to 500 nM; that for `N#Cc1ccc2nc(C(F)(F)F)n(-c3ccc(NC(=O)c4cccc(F)c4F)cc3)c2c1` [Compound 20, 2,3-Difluoro-N-[4-(2-trifluoromethyl-6-cyano-benzoimidazol-1-yl)-phenyl]-benzamide], 100 to 500 nM; that for `Nc1cccc2c1nc(C(F)(F)F)n2-c1ccc(NC(=O)c2cccc(F)c2F)cc1` [Compound 21, 2,3-Difluoro-N-[4-(2-trifluoromethyl-4-amino-benzoimidazol-1-yl)-phenyl]-benzamide], 100 to 500 nM.
The compound `CC(C)(C)OC(=O)Nc1cc(F)c(F)c(C(=O)Nc2ccc(-n3c(C(F)(F)F)nc4ccccc43)cc2)c1F` [Compound 22, N-(3-{N-[4-(2-trifluoromethyl-benzoimidazol-1-yl)-phenyl]-carbamoyl}-2,4,5-trifluoro-phenyl)-carbamic acid t-butyl ester] came in with an IC50 (bins given in nM) of 100 to 500 nM.
For the compound `O=C(Nc1ccc(-n2c(Cl)nc3ccccc32)cc1)c1cccc(F)c1F` [Compound 23, 2,3-Difluoro-N-[4-(2-chloro-benzoimidazol-1-yl)-phenyl]-benzamide], the half-maximal inhibitory concentration (IC50) (bins given in nM) is 100 to 500 nM.
Still for that read-out and setting: the value for `Cc1nnsc1C(=O)Nc1ccc(-c2c(Cl)cc3n2CCCC3)cc1` [Compound 24, 4-Methyl-[1,2,3]thiadiazole-5-carboxylic acid {N-[4-(2-chloro-5,6,7,8-tetrahydroindolizin-3-yl)-phenyl]} amide] was 100 to 500 nM; that for `O=C(Nc1ccc(-n2c(C(F)(F)F)nc3ccccc32)cc1)c1cc(F)ccc1F` [Compound 26, 2,5-Difluoro-N-[4-(2-trifluoromethyl-benzoimidazol-1-yl)-phenyl]-benzamide] was 100 to 500 nM.
Same read-out and setting: the result for `O=C(Nc1ccc(-n2c(C(F)(F)F)nc3ccccc32)cc1)c1ccncc1F` [Compound 27, 3-Fluoro-N-[4-(2-trifluoromethyl-benzoimidazol-1-yl)-phenyl]-isonicotinamide] reads 100 to 500 nM; that for `O=C(Nc1ccc(-n2c(Br)nc3ccccc32)cc1)c1cccc(F)c1F` [Compound 28, 2,3-Difluoro-N-[4-(2-bromo-benzoimidazol-1-yl)-phenyl]-benzamide], 100 to 500 nM; that for `Cc1nnsc1C(=O)Nc1ccc(-n2c(C(F)(F)F)nc3ccccc32)cc1` [Compound 29, 4-Methyl-[1,2,3]thiadiazole-5-carboxylic acid {N-[4-(2-trifluoromethyl-benzoimidazol-1-yl)-phenyl]} amide], 100 to 500 nM.
Same read-out and setting: the value for `O=C(Nc1ccc(-n2c(C(F)(F)F)nc3ccccc32)c(C(F)(F)F)c1)c1cccc(F)c1F` [Compound 30, 2,3-Difluoro-N-[3-trifluoromethyl-4-(2-trifluoromethyl-benzoimidazol-1-yl)-phenyl]-benzamide] was 100 to 500 nM.
Take `CC(C)(C)OC(=O)Nc1ccc(C(=O)Nc2ccc(-n3c(C(F)(F)F)nc4ccccc43)cc2)c(F)c1F` [Compound 31, N-(4-{N-[4-(2-trifluoromethyl-benzoimidazol-1-yl)-phenyl]-carbamoyl}-2,3-difluoro-phenyl)-carbamic acid t-butyl ester]: under “bins given in nM”, the IC50 was 100 to 500 nM.
Still for that read-out and setting: the result for `COc1cc2nc(C(F)(F)F)n(-c3ccc(NC(=O)c4cccc(F)c4F)cc3)c2cc1OC` [Compound 32, 2,3-Difluoro-N-[4-(2-trifluoromethyl-5,6-dimethoxy-benzoimidazol-1-yl)-phenyl]-benzamide] reads 100 to 500 nM.
Under “bins given in nM”, `O=C(Nc1ccc(-n2c(I)nc3ccccc32)cc1)c1cccc(F)c1F` [Compound 33, 2,3-Difluoro-N-[4-(2-iodo-benzoimidazol-1-yl)-phenyl]-benzamide] came in with an IC50 of 100 to 500 nM.
The same measure, in the same setting: the result for `Fc1ccc(F)c(NC(=S)Nc2ccc(-n3c(C(F)(F)F)nc4ccccc43)nc2)c1` [Compound 34, N′-[2-(2-trifluoromethyl-benzoimidazol-1-yl)-pyrid-5-yl]-N-(2,5-difluoro-phenyl)-thiourea] reads 100 to 500 nM; that for `CC(C)(C)c1ccc2c(c1)nc(C(F)(F)F)n2-c1ccc(NC(=O)c2cccc(F)c2F)cc1` [Compound 35, 2,3-Difluoro-N-[4-(2-trifluoromethyl-5-tert-butyl-benzoimidazol-1-yl)-phenyl]-benzamide], 100 to 500 nM.
On the same count and under the same terms, the value for `N#Cc1cc(NC(=O)c2cccc(F)c2F)ccc1-n1c(C(F)(F)F)nc2ccccc21` [Compound 37, 2,3-Difluoro-N-[3-cyano-4-(2-trifluoromethyl-benzoimidiazol-1-yl)-phenyl]-benzamide] was 100 to 500 nM; that for `O=C(Nc1ccc(-n2c(C(F)(F)F)nc3ccccc32)c(Cl)c1)c1cc(F)ccc1F` [Compound 38, 2,5-Difluoro-N-[3-chloro-4-(2-trifluoromethyl-benzoimidazol-1-yl)-phenyl]-benzamide] was 100 to 500 nM.
Still for that read-out and setting: the value for `Nc1ccc2c(c1)nc(C(F)(F)F)n2-c1ccc(NC(=O)c2cccc(F)c2F)cc1` [Compound 39, 2,3-Difluoro-N-[4-(2-trifluoromethyl-5-amino-benzoimidazol-1-yl)-phenyl]-benzamide] was 100 to 500 nM; that for `C[S+]([O-])c1nc2ccccc2n1-c1ccc(NC(=O)c2cccc(F)c2F)cc1` (stereo not drawn) [Compound 40, 2,3-Difluoro-N-[4-(2-methanesulfinyl-benzoimidazol-1-yl)-phenyl]-benzamide] was 100 to 500 nM.
`CC(C)c1nc2ccccc2n1-c1ccc(NC(=O)c2cccc(F)c2F)cc1` [Compound 49, 2,3-Difluoro-N-[4-(2-isopropyl-benzoimidazol-1-yl)-phenyl]-benzamide] came in with a concentration for half-maximal inhibition (IC50) (bins given with μM limit) above 1000 nM.
